Measured values as given in patent US10350273B2, “Treatment of hormonal disorders of growth” (The United States of America, as represented by the …, priority 2014, dated 2019).
Entries after “also recorded” stand apart in the source; their conditions may differ. Numbered stars: 1 amine (or outer) side, 2 acyl side, 3 side chain; on linkers, the order of the positions; unused ones are H or OH. Square brackets hold non-standard residues; d marks the D form. Side chains are listed from the residue outwards. Ends that are not written are not given here. Peptide text beside a SMILES is read from it. * marks the point of attachment. Ethylenediamine = C(CN[*:2])N[*:1]; Hyp = O=C(O)[C@@H]1C[C@@H](O)CN1; Phg = N[C@H](C(=O)O)c1ccccc1; CO = O=C([*:1])[*:2]; Bn = c1ccc(C*)cc1

What was measured:
[1] = system: pituitary; conditions: cited from earlier work
[2] = system: X-LAG patients; experiment: Clinical treatment of X-LAG patients; format: in vivo, human; conditions: for IGF-1 levels under treatment: octreotide 150 mcg sc t.i.d. together with cabergoline 0.5 mg/week, one patient; for hormonal or growth control: X-LAG patients
From the text: Among the nine patients who underwent primary surgical resection, three had immediate GH/PRL control and excessive growth was halted. For those patients in whom growth and GH secretion were not controlled by their initial surgery, the subsequent management was complex. […] Therefore, it can be concluded that the GH receptor antagonist pegvisomant represents a useful option for IGF-1 and growth control.
The patient was a person with no family history of growth disorders. […] […] the patient began to grow excessively in terms of length and weight, exceeding the 97th percentile of their growth charts […]. […] A random level of GHRH was raised, although no potential ectopic sources were identified. […] As chronic treatment with somatostatin analogs and dopamine agonists for 12 months had no effect on the patient's excessive growth and their pituitary lesion began impinging on the optic chiasm, the patient was referred for neurosurgical treatment.

[3] = system: somatotroph cells; experiment: Prolactin (PRL) secretion by primary pituitary tumor cell culture of an X-LAG patient; format: cell-based, human; conditions: for PRL change compared to control wells: overnight incubation, mean±SEM; for effect on prolactin secretion (in words): X-LAG pituitary tumor cell culture, dose range; for PRL response on co-incubation with GHRH: co-incubation with GHRH 10^−10M
Procedure: (§1) A surgical sample of the human pituitary adenoma of the patient mentioned in example 11 in Dulbecco's modified Eagle's medium (DMEM) was dissociated mechanically and enzymatically as described by Jaquet et al. (Hormonal regulation of prolactin release by human prolactinoma cells cultured in serum-free conditions. Horm Res 22 153-163, 1985). A sample of the medium in the postoperative sample was retained before further preparation. A total of 50,000 tumor cells per well were plated in 24 well plates coated with extracellular matrix from bovine endothelial corneal cells required for cell adhesion. The cells were cultured in DMEM depleted of L-Valine (D-Valine-DMEM) to block fibroblast proliferation, supplemented with 10% fetal calf serum, penicillin (100 U/ml), streptomycin (100 μg/ml), and glutamine ([…]) at 37° C. in a water-saturated atmosphere containing 7% CO2. After 48 h, culture medium was changed to D-Valine DMEM containing 1% ITS (Insulin Transferin Selenium) and 1% fetal calf serum for another 48 h. Cells were incubated with drugs at a range of concentrations (10^−12-10^−7 mol/L) for 16 h (overnight). All the experiments were performed in triplicate. The medium was collected and stored frozen for GH and PRL measurements.
(§2) The somatostatin analogs (SSAs), octreotide and pasireotide were purchased from Novartis (Basel, Switzerland), Forskolin was obtained from Sigma-Aldrich (St. Quentin Fallavier, France), Cabergoline was obtained from Pfizer (Pharmacia & Upjohn Kalamazoo, USA), MK-0677 (ghrelin analog) was obtained from Europeptide, Argenteuil France, and MSP (ghrelin receptor-GHS-R inverse agonist) came from Polypeptide Laboratories (Strasbourg, France). The GHRH receptor antagonist, acetyl-(D-Arg^2)-GHRH(1-29) amide, and GnRH1-5 were obtained from Bachem, Europe.
(§3) GH secretion by the primary culture cells was quantified using the ALPHALISA® human growth hormone GH kit (Perkin Elmer USA). Prolactin levels were measured in culture medium using a commercial IRMA kit (PRL IRMA Kit-Beckman Coulter Immunotech, Marseille, France). Human GHRH concentrations in plasma were measured using an in-house double-antibody radio-immunoassay as described previously and using a standard solution of Stimu-GH 50 μg (Ferring) and the matrix was non-used culture medium (Girard et al.; Eur. J. Clin. Pharmacol., 32, 507-513, 1987).

[4] = system: somatotroph cells; experiment: GH secretion by primary pituitary tumor cell culture of an X-LAG patient; format: cell-based, human; conditions: for GH change compared to control wells: overnight incubation; for effect on GH secretion (in words): X-LAG pituitary tumor cell culture, dose range; for GH response on co-incubation with GHRH: co-incubation with GHRH 10^−10M
Procedure: as §1, §2, §3

[5] = system: cAMP production; experiment: cAMP assay (HTRF-cAMP Femto Kit) in cells from the tumor; format: cell-based, human; conditions: 10^−6M, 3 h, 37° C.
Procedure: Following the pharmacological co-incubation studies described in Example 13 the response of the tumor cells in terms of cAMP production was assessed. The cells from tumor were seeded into 24-well plates (4×10^4 cells/well). After 24 h in culture, the cAMP concentration was determined using the HTRF-cAMP Femto Kit (CisBio International, Bagnols-sur-Cèze, France), as described previously Cuny et al. (Mol Cell Endocrinol 355, 106-113, 2012). According to the manufacturer's protocol, the cells were detached using trypsin, seeded onto 96-well plates in suspension, and incubated at 37° C. for 3 h in the presence of forskolin. The HTRF assay reagents were then added directly into the 96-well plates.

[6] = system: somatotroph cells; experiment: GH secretion by primary pituitary tumor cell culture of an X-LAG patient; format: cell-based, human; conditions: 10^−13 M, overnight incubation, mean±SEM
[7] = system: sporadic X-LAG patient; experiment: Dynamic pituitary hormone tests (TRH test, GnRH test) in the X-LAG patient; format: in vivo, human
From the text: Fluctuations in elevated GHRH levels also occurred, and these were partially but not completely in phase with alterations in GH. While the elevated prolactin levels varied by less than +7% from baseline throughout the study, changes in GH levels were more marked (−23.6% to +61.5%).

[8] = listed as acetyl-(D-Arg^2)-GHRH(1-29)
[9] = TRH 125 μg IV or GnRH 25 μg IV, 0, 15, 30 and 90 minutes

Tyr-Ala-Asp-Ala-Ile-Phe-Thr-Asn-Ser-Tyr-Arg-Lys-Val-Leu-Gly-Gln-Leu-Ser-Ala-Arg-Lys-Leu-Leu-Gln-Asp-Ile-Met-Ser-Arg-NH2 [GHRH(1-29)]
potency relative to native GHRH [1]: ≥ 50%

C=CCN1C[C@H](C(=O)N(CCCN(C)C)C(=O)NCC)C[C@@H]2c3cccc4[nH]cc(c34)C[C@H]21 [cabergoline]
IGF-1 levels under treatment [2]: remained consistently elevated
PRL change compared to control wells ([3]; concentration not given): −15±0.04%
GH change compared to control wells ([4]; 10^−8M, mean±SEM): −32±0.8%

C=C[C@@]1(C)CC(=O)[C@]2(O)[C@@]3(C)[C@@H](O)CCC(C)(C)[C@@H]3[C@H](O)[C@H](OC(C)=O)[C@@]2(C)O1 [forskolin]
rise in cAMP production compared with controls [5]: +396±1.9%

NCCCC[C@@H]1NC(=O)[C@@H](Cc2c[nH]c3ccccc23)NC(=O)[C@H](c2ccccc2)NC(=O)[C@@H]2C[C@@H](OC(=O)NCCN)CN2C(=O)[C@H](Cc2ccccc2)NC(=O)[C@H](Cc2ccc(OCc3ccccc3)cc2)NC1=O [pasireotide] (cyclo([Hyp]([CO-Ethylenediamine])[Phg][dW]KY(Bn)F))
effect on prolactin secretion (in words) [3]: no effect on prolactin secretion
GH change compared to control wells ([4]; 10^−8M, mean±SEM): −18±0.6%
effect on GH secretion (in words) [4]: small inhibitory effect on GH secretion

Ghrelin
effect on GH secretion (in words) [4]: minor stimulatory effect on GH secretion

acetyl-(D-Arg^2)-GHRH(1-29) amide (Ac-Y[dR]DAIFTNSYRKVLGQLSARKLLQDIMSR-NH2; SMILES CC[C@H](C)[C@H](NC(=O)[C@H](C)NC(=O)[C@H](CC(=O)O)NC(=O)[C@@H](CCCNC(=N)N)NC(=O)[C@H](Cc1ccc(O)cc1)NC(C)=O)C(=O)N[C@@H](Cc1ccccc1)C(=O)N[C@H](C(=O)N[C@@H](CC(N)=O)C(=O)N[C@@H](CO)C(=O)N[C@@H](Cc1ccc(O)cc1)C(=O)N[C@@H](CCCNC(=N)N)C(=O)N[C@@H](CCCCN)C(=O)N[C@H](C(=O)N[C@@H](CC(C)C)C(=O)NCC(=O)N[C@@H](CCC(N)=O)C(=O)N[C@@H](CC(C)C)C(=O)N[C@@H](CO)C(=O)N[C@@H](C)C(=O)N[C@@H](CCCNC(=N)N)C(=O)N[C@@H](CCCCN)C(=O)N[C@@H](CC(C)C)C(=O)N[C@@H](CC(C)C)C(=O)N[C@@H](CCC(N)=O)C(=O)N[C@@H](CC(=O)O)C(=O)N[C@H](C(=O)N[C@@H](CCSC)C(=O)N[C@@H](CO)C(=O)N[C@@H](CCCNC(=N)N)C(N)=O)[C@@H](C)CC)C(C)C)[C@@H](C)O) [acetyl-(D-Arg^2)-GHRH (1-29) amide]
GH change compared to control wells [6]: +18±0.8%
PRL change compared to control wells ([3]; 10^−8M): −73±0.1%
effect on prolactin secretion (in words) [3]: reduce basal and stimulated GH and prolactin secretion in a dose dependent manner
PRL response on co-incubation with GHRH [3]: complete abolition
PRL response on co-incubation with GHRH [3, 8]: abolished the stimulatory effect of GHRH itself
GH change compared to control wells ([4]; 10^−11M, mean±SEM): +13±1.9%
effect on GH secretion (in words) [4]: reduce basal and stimulated GH and prolactin secretion in a dose dependent manner
GH response on co-incubation with GHRH [4]: complete abolition
GH response on co-incubation with GHRH [4, 8]: abolished the stimulatory effect of GHRH itself
GH change compared to control wells ([4]; highest GHRH-receptor antagonist dose studied): approximately −34±1.9%

GnRH: gonadotropin-releasing hormone, 25 μg IV GnRH (HRF-AYERST) (QHWSYGLRPG; not fully specified (residue 1, C-terminus); UniProt P01148 24-33, looked up)
GH level after GnRH administration ([7]; 25 μg IV GnRH, baseline GH 212 ng/mL): 50 ng/mL
GH response (in words) [7, 9]: suppression of GH levels at 30 mins
GHRH level response (in words) [7, 9]: not markedly altered; also recorded: GHRH levels remained unaltered; also recorded: remained elevated throughout
prolactin response (in words) [7, 9]: prolactin rose mildly

GHRH: Human GHRH (hGHRH) peptide is comprised of 44 amino acid residues (YADAIFTNSYRKVLGQLSARKLLQDIMSRQQGESNQERGARARL)
PRL change compared to control wells ([3]; 10^−8M): +11±0.4%
effect on prolactin secretion (in words) [3]: further stimulated
GH change compared to control wells ([4]; 10^−10 M, mean±SEM): +41±0.4%
effect on GH secretion (in words) [4]: further stimulated

CC(C)(N)C(=O)N[C@H](COCc1ccccc1)C(=O)N1CCC2(CC1)CN(S(C)(=O)=O)c1ccccc12 [MK-0677]
effect on prolactin secretion (in words) [3]: no effect on prolactin secretion
GH change compared to control wells ([4]; concentration not given, mean±SEM): +15±0.5%

GnRH1-5: fragment of gonadotropin-releasing hormone, putative GPR101 agonist (QHWSY; ends and bridges not checked)
effect on prolactin secretion (in words) [3]: did not stimulate prolactin release
GH change compared to control wells ([4]; 10^−10 M, mean±SEM): +15±1.5%
effect on GH secretion (in words) [4]: little effect on GH

CC(C)[C@@H]1NC(=O)[C@H](CCCCN)NC(=O)[C@@H](Cc2c[nH]c3ccccc23)NC(=O)[C@H](Cc2ccc(O)cc2)NC(=O)[C@@H](NC(=O)[C@H](N)Cc2ccc3ccccc3c2)CSSC[C@@H](C(=O)N[C@H](C(N)=O)[C@@H](C)O)NC1=O [lanreotide]
hormonal or growth control [2]: did not lead to hormonal or growth control

pegvisomant
control of IGF1 (and growth) ([2]; postoperative use in X-LAG patients): control of IGF1 in all five X-LAG patients; also recorded: control of IGF1 and excessive growth in three patients

C[C@@H](O)[C@@H]1NC(=O)[C@H](CCCCN)NC(=O)[C@@H](Cc2c[nH]c3ccccc23)NC(=O)[C@H](Cc2ccccc2)NC(=O)[C@@H](NC(=O)[C@H](N)Cc2ccccc2)CSSC[C@@H](C(=O)N[C@H](CO)[C@@H](C)O)NC1=O [octreotide]
hormonal or growth control [2]: did not lead to hormonal or growth control
IGF-1 levels under treatment [2]: remained consistently elevated
PRL change compared to control wells ([3]; 10^−9M): −26±0.03%
effect on prolactin secretion (in words) [3]: no inhibitory effect on GH or prolactin
effect on GH secretion (in words) [4]: no inhibitory effect on GH or prolactin; also recorded: no inhibition in GH secretion
